Results on 18 compounds are retold here after patent US5272175A, “Substituted tyrosyl diamide compounds” (priority 1992, dated 1993).

The subject of assay [1] is mice. Put plainly: Writhing Assay (phenylbenzoquinone (PBQ)-induced writhing), analgesic activity. In kind it is in vivo, CD Charles River mice. The conditions noted are these: Mus musculus, 50% of mice with writhes <= half control median. From the text:
The "Writhing Assay" is one of the most widely-used experimental procedures for measuring the analgesic activity of different narcotic and nonnarcotic analgesic agents, and involves the continuous, chemically-induced pain of visceral origin to an animal, such as a mouse or rat. [Gyires et al., Arch. int. Pharmacodyn, 267, 131-140 (1984); C. Vander Wende et al., Fed. Proc., 15, 494 (1956); Koster et al., Fed. Proc., 18, 412 (1959); and Witken et al., J. Pharmacol. Exp. Ther., 133, 400-408 (1961).] Chemicals which may be used to induce this pain include phenylbenzoquinone (PBQ) and acetic acid. As a result of the chemical irritation to the animal, a characteristic stretching and writhing of the animal (dorsiflexion of the animal's back, extension of its hindlimbs and the strong contraction of its abdominal musculature) will generally occur. […] Drugs which reduce the number of writhes of the animal appear to restore the normal nociceptive threshold of the animal.
This assay was conducted generally in the manner described by R. I. Taber, "Predictive Value of Analgesic Assays in Mice and Rats," Advances in Biochemical Phychopharmacology, 8, 191 (1974).
Two hundred CD Charles River mice, weighing 20 to 30 grams, were used in this assay.
Twenty-five minutes after subcutaneous administration, and fifteen minutes after oral administration, to the mice of 10 mg per kilogram (mpk) of body weight of either a tyrosyl diamide compound of the invention (hereinafter "test compound"), or of the Jacobson Compound, 0.1 mL per 10 g of body weight of a 0.025% w/v solution of phenylbenzoquinone (PBQ) was injected intraperitoneally into each mouse. Some mice were given saline in place of a test compound, or of the Jacobson Compound, and were used as a control group.
Five minutes later, each mouse was individually placed into a glass beaker for observation, and the number of writhes occurring during the following ten-minute period was counted.
A compound was considered to be "active" (to have produced analgesia in a mouse) if, after the administration of 10 mg per kilogram (mpk) of body weight of the compound to the mouse, the number of writhes elicited by a mouse injected with PBQ was equal to, or less than, one-half the median number of writhes recorded for the saline-treated control group of mice that day, as described by R. I. Taber, supra.
The standard initial screening dose of a test compound employed in this assay was 10 mpk […] for both routes of administration. If this initial screening dose of the compound produced analgesia in seven of ten mice, then the effect of additional doses of the compound on the writhing response was evaluated, and then the ED50 value (that dose of a compound which produced analgesia in 50% of the mice to which the compound was administered) was calculated. A maximum likelihood function was used to determine the ED50 value. (The slopes of the dose-response curves for the compounds analyzed were compared as described by Tallarida and Murray, Manual of Pharmacologic Calculations, Page 1 (Springer Verlag, N.Y., 1981)).
A general note: An intraperitoneal irritant provokes the stretching counted in writhing tests.

The target of assay [2] is δ opioid receptors (Rattus norvegicus, UniProt P33533). Put plainly: Opiate Binding Assay, displacement of 3[H]-DSLET from δ receptors. Conditions: for Mean IC50 μ/δ Ratio: ratio of mean IC50 values for μ and δ, above 1.0 = more δ specific.
δ opioid receptors, sequence (P33533 whole entry): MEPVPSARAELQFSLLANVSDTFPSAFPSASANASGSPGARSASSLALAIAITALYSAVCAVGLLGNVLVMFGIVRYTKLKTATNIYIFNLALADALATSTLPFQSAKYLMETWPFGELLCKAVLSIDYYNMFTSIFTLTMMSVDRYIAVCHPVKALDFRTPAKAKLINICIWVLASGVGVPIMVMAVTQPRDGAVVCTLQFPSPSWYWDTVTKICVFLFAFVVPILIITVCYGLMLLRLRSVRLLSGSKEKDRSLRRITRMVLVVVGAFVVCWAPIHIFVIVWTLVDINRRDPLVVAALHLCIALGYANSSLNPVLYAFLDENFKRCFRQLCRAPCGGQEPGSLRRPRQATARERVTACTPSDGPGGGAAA
The target in assay [3] is μ opioid receptors (Rattus norvegicus, UniProt P33535). Put plainly: Opiate Binding Assay, displacement of 3[H]-DAMPGO from μ receptors.
μ opioid receptors, sequence (P33535 whole entry): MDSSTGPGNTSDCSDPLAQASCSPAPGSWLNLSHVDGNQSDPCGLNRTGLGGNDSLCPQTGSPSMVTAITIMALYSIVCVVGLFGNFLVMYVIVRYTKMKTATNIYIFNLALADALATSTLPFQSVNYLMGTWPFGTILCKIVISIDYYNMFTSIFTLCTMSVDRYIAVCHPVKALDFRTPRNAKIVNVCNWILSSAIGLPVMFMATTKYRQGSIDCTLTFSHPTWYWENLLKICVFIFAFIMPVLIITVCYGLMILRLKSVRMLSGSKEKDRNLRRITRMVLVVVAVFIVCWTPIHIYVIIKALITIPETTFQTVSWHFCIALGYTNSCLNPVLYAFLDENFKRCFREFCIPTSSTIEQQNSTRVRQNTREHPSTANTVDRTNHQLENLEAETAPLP
Assay [4] deals with mice. The conditions noted are these: general statement on both tests; cited from earlier work.
For assay [5], the system named is mice. The conditions noted are these: general statement on both tests; cited from earlier work. The source holds these as a separate data set.
[6] abbreviates: sc, 25 min, subcutaneous, PBQ i.p. 25 min after compound, read-out: ED50, Writhing Assay, Subcutaneous (S.C.).
Where [7] appears, read: read-out: Mean IC50 Value, δ, rat forebrain membranes, 3[H]-DSLET 1.0 nM, 37° C., pH 7.4.
[8] abbreviates: read-out: Mean IC50 Value, μ, rat forebrain membranes, 3[H]-DAMPGO 2.0 nM, 37° C., pH 7.4.

pIC50: −log10 of the molar value. Where a name gives a salt, the structure may show the parent alone. Read-outs that look alike come from different tables or passages of the source.

In the case of `Cc1cc(O)cc(C)c1C[C@H](N)C(=O)NC(C)(C)CNC(=O)[C@H](Cc1ccccc1)NC(=O)OCc1ccccc1` [Example 10, Phenylmethyl[1S-[[2-[[2S-amino-3-(4-hydroxy-2,6-dimethylohenyl)-1-oxopropyl]amino]-2-methylpropyl]-amino]carbonyl]-2-phenylethyl]carbamate, monohydrochloride], in assay [1] (setting [6]), the ED50 is 5 mg/kg. Besides, in assay [2], the negative-log IC50 (pIC50) was 8.40 and the “Mean IC50 μ/δ Ratio” value worked out at 0.8. The same compound showed a negative-log IC50 (pIC50) in assay [3] of 8.48.

Consider `CC(=O)N[C@@H](Cc1ccccc1)C(=O)NCC(C)(C)NC(=O)[C@@H](N)Cc1c(C)cc(OC(C)=O)cc1C` [Example 16, αS-(acetylamino)-N-2-[2-[[4-(acetyloxy)-2,6-dimethylphenyl]-2S-amino-1-oxopropyl]amino]-2-methylpropyl]benzenepropanamide, hydrochloride], for which the median effective dose (ED50) in assay [1] (setting [6]) is 5 mg/kg. In addition, in assay [2], the “Mean IC50 μ/δ Ratio” value is listed as 0.7. For the same compound, the negative-log IC50 (pIC50) is 9.11 in assay [2] (setting [7]) and 9.29 in assay [3] (setting [8]).

For the compound `CC(=O)N[C@@H](CCc1ccccc1)C(=O)NCC(C)(C)NC(=O)[C@@H](N)Cc1c(C)cc(O)cc1C` [Example 18, αS-(acetylamino)-N-[2-[[2S-amino-3-(4-hydroxy-2,6-dimethylohenyl)-1-oxopropyl]amino]-2-methyloropyl]-benzenebutanamide, hydrochloride], the 50% effective dose (ED50) in assay [1] (setting [6]) was 5 mg/kg. In assay [2], the negative logarithm of the IC50 (pIC50) was 8.33 and the “Mean IC50 μ/δ Ratio” value was determined as 0.07. Moreover, the pIC50 in assay [3] is 9.48.

Consider `CCOC(=O)CNC(=O)N[C@@H](Cc1ccccc1)C(=O)NCC(C)(C)NC(=O)[C@@H](N)Cc1c(C)cc(O)cc1C` [Example 35, hydrochloride], for which the negative-log IC50 (pIC50) was around 8.70 in assay [2] (setting [7]) and above 8.00 in assay [3] (setting [8]).

As for `CNC(=O)N[C@@H](Cc1ccccc1)C(=O)NCC(C)(C)NC(=O)[C@@H](N)Cc1c(C)cc(O)cc1C` [Example 37, αS-amino-N-1,1-dimethyl-2-[2S-[[(methylamino)carbonyl]amino]-1-oxo-3-phenylpropyl]amino]ethyl]-4-hydroxy-2,6-dimethylbenzeneoropanamide, monohydrochloride], in assay [1] (setting [6]), the ED50 is 5 mg/kg. The pIC50 in assay [2] was around 8.70; in assay [3] it was above 8.00.

As to `CC(=O)N[C@@H](Cc1ccccc1)C(=O)NC(C)(C)CNC(=O)[C@@H](N)Cc1c(C)cc(O)cc1C` [Example 39, αS-(Acetylamino)-N-[2-[[2S-amino-3-(4-hydroxy-2,6-dimethylphenyl)-1-oxopropyl]amino]-1,1-dimethylethyl]-benzenepropanamide, monohydrochloride], in assay [2], the pIC50 was 8.11 and the “Mean IC50 μ/δ Ratio” value is 0.6. The compound further showed a pIC50 in assay [3] of 8.33.

Take `CC(=O)N[C@@H](Cc1ccccc1)C(=O)NCC(C)(C)NC(=O)[C@H](N)Cc1c(C)cc(O)c(C)c1C` [Example 41, αS-(acetylamino)-N-[2-[[2R-amino-3-(4-hydroxy-2,3,6-trimethylphenyl) -1-oxopropyl]amino]-2-methylpropyl]benzenepropanamide, monohydrochloride]: the figures for the negative logarithm of the IC50 (pIC50) in assay [2] and in assay [3] were 6.59 and 6.91, respectively. The “Mean IC50 μ/δ Ratio” value in assay [2] is given as 0.5.

For `Cc1cc(O)cc(C)c1C[C@H](N)C(=O)N[C@H](C)CNC(=O)[C@H](Cc1ccccc1)NC(=O)OCc1ccccc1` [Example 46, Phenylmethyl[1S[[[2R-[[2S-amino-3-(4-hydroxy-2,6-dimethylphenyl) -1-oxopropyl]amino]propylamino]carbonyl]-2-phenylethyllcarbamate, hydrochloride], in assay [2], the pIC50 is 8.38 and the “Mean IC50 μ/δ Ratio” value stood at 0.2. Also, in assay [3], the negative-log IC50 (pIC50) is 9.06.

For `CC(=O)N[C@@H](Cc1ccccc1)C(=O)NCCNC(=O)[C@@H](N)Cc1c(C)cc(O)cc1C` [Example 48, αS-(Acetylamino)-N-[(2-[[2S-amino-3-(4-hydroxy-2,6-dimethylphenyl)-1-oxopropyl]aminoethyl]benzenepropanamide, hydrochloride], in assay [2], the negative-log IC50 (pIC50) was 8.54 and the “Mean IC50 μ/δ Ratio” value came out at 0.1. In addition, in assay [3], the pIC50 is 9.52.

As for `CC(=O)N[C@@H](Cc1c(C)cccc1C)C(=O)NCCNC(=O)[C@@H](N)Cc1c(C)cc(O)cc1C` [Example 52, αS-(Acetylamino)-N-[2-[[2S-amino-3-(4-hydroxy-2,6-dimethylphenyl)-1-oxopropyl]amino]ethyl]-2,6-dimethylbenzeneoropanamide, hydrochloride], in assay [1] (setting [6]), the ED50 was 5 mg/kg. For the same compound, the pIC50 in assay [2] is 7.49; in assay [3], 9.22.

Consider `CC(=O)N[C@@H](Cc1ccccc1)C(=O)N1CCN(C(=O)[C@@H](N)Cc2c(C)cc(O)cc2C)CC1` [Example 54, N-[1S-[[4-[2-S-Amino-3-(4-hydroxy-2,6-dimethylphenyl)-1-oxopropyl]-1-piperazinyl]carbonyl]-2-phenylethyl]acetamide, monohydrochloride], for which, in assay [2], the pIC50 was 7.05 and the “Mean IC50 μ/δ Ratio” value stood at 0.04. This compound also gave a pIC50 in assay [3] of 8.48.

Consider `CC(=O)N[C@@H](Cc1ccccc1)C(=O)N1CCC(NC(=O)[C@@H](N)Cc2c(C)cc(O)cc2C)C1` (stereo partly drawn) [Example 56, N-1-[2S-(Acetylamino)-1-oxo-3-phenylpropyl]-3-pyrrolidinyl]-αS-amino-4-hydroxy-2,6-dimethylbenzenepropanamide, monohydrochloride], for which, in assay [2], the negative logarithm of the IC50 (pIC50) is 7.30 and the “Mean IC50 μ/δ Ratio” value was found to be 1.7. Also, in assay [3], the pIC50 was 7.07.

As to `Cc1cc(O)cc(C)c1C[C@H](N)C(=O)NC(C)(C)CNC(=O)[C@H](Cc1ccccc1)NC(=O)NS(=O)(=O)c1ccccc1` [Example 59, S-amino-N-[1,1-dimethyl-2-[[1-oxo-3-phenyl-2S-[[[(phenylsulfonyl)amino]carbonyl]amino]propyl]amino]ethyl]-4-hydroxy-2,6-dimethylbenzeneoropanamide, monohydrochloride], in assay [2], the negative logarithm of the IC50 (pIC50) was 8.14 and the “Mean IC50 μ/δ Ratio” value came out at 0.4. Moreover, the negative-log IC50 (pIC50) in assay [3] was 8.49.

Turning to `CC(=O)N[C@@H](Cc1ccccc1)C(=O)NCC(C)(C)NC(=O)[C@@H](N)Cc1ccc(O)cc1` [Jacobson Compound, reference compound], the ED50 in assay [1] (0.25 h, oral, PBQ i.p. 15 min after compound, read-out: ED50, Writhing Assay, Oral (p.o.)) is 4.1 mg/kg; in assay [1] (setting [6]) it was 1.6 mg/kg. Moreover, the figures for the negative-log IC50 (pIC50) in assay [2] and in assay [3] were 8.70 and 9.22, respectively. Further, the “Mean IC50 μ/δ Ratio” value in assay [2] turned out to be 0.3.

Regarding `Cc1cc(CC(=O)O)n(C)c1C(=O)c1ccc(Cl)cc1` [Zomax], the “activity in Tail Flick Assay” value in assay [4] is listed as “little activity”. The “activity in Hot Plate Assay” value in assay [5] is listed as “little activity”.

In the case of `CC(=O)Oc1ccccc1C(=O)O` [aspirin], the “activity in Tail Flick Assay” value in assay [4] is “little activity”. In assay [5], the “activity in Hot Plate Assay” value was “little activity”.

With `COc1ccc2c3c1O[C@H]1[C@@H](O)C=C[C@H]4[C@@H](C2)N(C)CC[C@@]341` [codeine], the “activity in Tail Flick Assay” value in assay [4] is given as “active in both of these tests”. For the same compound, the “activity in Hot Plate Assay” value in assay [5] is “active in both of these tests”.

On to `CN1CC[C@]23c4c5ccc(O)c4O[C@H]2[C@@H](O)C=C[C@H]3[C@H]1C5` [morphine], for which the “activity in Tail Flick Assay” value in assay [4] is listed as “active in both of these tests”. In addition, the “activity in Hot Plate Assay” value in assay [5] is “active in both of these tests”.

For orientation: ED50 means the midpoint of the dose-response relation. Broadly, the pIC50 is the IC50 on a negative log10 scale, so that one unit is a factor of ten.
